Here are results for seven compounds from PubChem BioAssay (NCI).

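Exposure lasted 48 hours, with cells grown in 96-well plates and compounds tested at five concentrations. GI50 is the concentration that inhibits growth by half. TGI denotes the concentration required for complete inhibition of growth.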

Among the test systems are SK-OV-3 ovarian; KM12 colon; T-47D breast; M14 melanoma; PC-3 prostate; ACHN renal; CAKI-1 renal; MOLT-4 leukemia; SR leukemia; SN12C renal.
What all share (assay): NCI tumour cell line growth inhibition, 48 h

As for `CC1=C(C(=O)Nc2cc(Cl)c3[nH]ncc3c2)C(c2ccc(C(F)(F)F)cc2)CC(=O)N1` (stereo not given), the GI50 in the test on SK-OV-3 ovarian was greater than 25 µM; in the test with KM12 colon it was 20 µM; in the test with T-47D breast, greater than 12.8 µM; in the test with M14 melanoma it was greater than 25 µM; in the test on PC-3 prostate, greater than 25 µM; in the test on ACHN renal it was greater than 25 µM. The GI50 was greater than 25 µM with CAKI-1 renal, 11.8 µM in the test with MOLT-4 leukemia, greater than 7.84 µM with SR leukemia and greater than 25 µM in the test with SN12C renal. Moreover, the TGI in the test on SK-OV-3 ovarian, in the test on KM12 colon, in the test on T-47D breast, with M14 melanoma, in the test on PC-3 prostate and with ACHN renal was greater than 25 µM in each case. Moreover, the TGI in the test with CAKI-1 renal, with MOLT-4 leukemia, in the test on SR leukemia and in the test on SN12C renal was greater than 25 µM in each case.

Take `C/C(O)=C(\C#N)C(=O)Nc1ccc(C(F)(F)F)cc1`: the GI50 in the test on SK-OV-3 ovarian was 94.5 µM; in the test with KM12 colon, 23.9 µM; in the test with T-47D breast, 92 µM; in the test on M14 melanoma, 52.5 µM; in the test on PC-3 prostate, 7.97 µM; in the test on ACHN renal, 45.7 µM. Also, the GI50 was 5.46 µM in the test with CAKI-1 renal, 67.9 µM with MOLT-4 leukemia, greater than 100 µM in the test on SR leukemia and 29.1 µM in the test on SN12C renal. Besides, the TGI in the test on SK-OV-3 ovarian, in the test on KM12 colon, in the test on T-47D breast, in the test on M14 melanoma, with PC-3 prostate and in the test with ACHN renal was greater than 100 µM each time. In addition, the TGI in the test on CAKI-1 renal, in the test with MOLT-4 leukemia, with SR leukemia and in the test on SN12C renal was greater than 100 µM each time.

As to `Cc1ccc(NC(=O)CSc2nnc3n(Cc4ccccc4)c(=O)c4c(C)c(C(N)=O)sc4n23)cc1`, the GI50 was 4.28 µM in the test on SK-OV-3 ovarian; greater than 100 µM in the test on KM12 colon; 8.12 µM with T-47D breast; 26 µM with M14 melanoma; greater than 100 µM in the test with PC-3 prostate; 19.9 µM with ACHN renal. Further, the GI50 with CAKI-1 renal was greater than 100 µM; in the test with MOLT-4 leukemia, 27.3 µM; in the test with SR leukemia, 16.4 µM; with SN12C renal, greater than 100 µM. Further, the TGI in the test on SK-OV-3 ovarian was 65.4 µM; in the test with KM12 colon it was greater than 100 µM; in the test on T-47D breast it was greater than 100 µM; with M14 melanoma it was greater than 100 µM; in the test with PC-3 prostate it was greater than 100 µM; in the test with ACHN renal, 51 µM. The TGI in the test with CAKI-1 renal was greater than 100 µM; in the test on MOLT-4 leukemia it was 81.5 µM; in the test on SR leukemia, 34.2 µM; with SN12C renal, greater than 100 µM.

For the compound `O=[N+]([O-])c1cc(C(F)(F)F)ccc1Sc1ccc(C(F)(F)F)cc1[N+](=O)[O-]`, the GI50 in the test with SK-OV-3 ovarian is 7.65 µM; in the test on KM12 colon, 5.24 µM; in the test on T-47D breast, 29.2 µM; with M14 melanoma, 7.23 µM; with PC-3 prostate it was 61.2 µM; with ACHN renal, 49.4 µM. The GI50 in the test on CAKI-1 renal was 5.67 µM; in the test with MOLT-4 leukemia it was 3.92 µM; in the test with SR leukemia it was 3.65 µM; with SN12C renal, 7.7 µM. In addition, the TGI with SK-OV-3 ovarian, in the test with KM12 colon, in the test on T-47D breast, in the test with M14 melanoma, in the test with PC-3 prostate and in the test on ACHN renal was greater than 100 µM throughout. For the same compound, the TGI with CAKI-1 renal, in the test on MOLT-4 leukemia, in the test on SR leukemia and in the test on SN12C renal was greater than 100 µM each time.

With `COc1ccc2c(c1)C(=O)/C(=C/c1ccc([N+](=O)[O-])o1)O2`, the GI50 with SK-OV-3 ovarian was 5.36 µM; with KM12 colon, 1.65 µM; with T-47D breast, 0.77 µM; in the test on M14 melanoma it was 1.64 µM; with PC-3 prostate it was 1.91 µM; in the test with ACHN renal, 0.758 µM. Further, the GI50 is 0.432 µM with CAKI-1 renal, 1.67 µM in the test with MOLT-4 leukemia, 0.198 µM with SR leukemia and 1.91 µM in the test on SN12C renal. The TGI is greater than 29.9 µM in the test on SK-OV-3 ovarian; 3.11 µM in the test with KM12 colon; 2.59 µM in the test with T-47D breast; 3.32 µM with M14 melanoma; 8.27 µM in the test on PC-3 prostate; 2.02 µM in the test on ACHN renal. Also, the TGI amounted to 1.49 µM in the test on CAKI-1 renal, 3.97 µM in the test on MOLT-4 leukemia, 1.23 µM in the test with SR leukemia and 4.36 µM with SN12C renal.

As to `CN(C)CCNC(=O)Cn1cnc2cccc([N+](=O)[O-])c2c1=O`, the TGI with SK-OV-3 ovarian, with KM12 colon, in the test on T-47D breast, in the test with M14 melanoma, with PC-3 prostate and in the test on ACHN renal was greater than 100 µM throughout. In addition, the TGI in the test on CAKI-1 renal, in the test with MOLT-4 leukemia, in the test with SR leukemia and in the test on SN12C renal was greater than 100 µM throughout.

Regarding `Cc1ccc(C(=O)/C(=C\c2ccc([N+](=O)[O-])cc2)S(=O)Cc2ccc(Cl)cc2)cc1` (stereo not given), the GI50 was 9.55 µM in the test on SK-OV-3 ovarian; 2.33 µM in the test with KM12 colon; 1.51 µM in the test with T-47D breast; 1.65 µM in the test with M14 melanoma; 1.56 µM in the test with PC-3 prostate; 2.09 µM in the test on ACHN renal. Further, the GI50 in the test with CAKI-1 renal was 1.81 µM; with MOLT-4 leukemia, 1.2 µM; in the test on SR leukemia, 1.13 µM; in the test on SN12C renal it was 1.76 µM. Besides, the TGI amounted to 21.3 µM in the test with SK-OV-3 ovarian; 6.2 µM with KM12 colon; 3.37 µM with T-47D breast; 3.19 µM in the test with M14 melanoma; 3.12 µM in the test on PC-3 prostate; 4.98 µM with ACHN renal. Moreover, the TGI in the test with CAKI-1 renal was determined as 4.04 µM; in the test with MOLT-4 leukemia it was 6.14 µM; in the test on SR leukemia, 10.1 µM; in the test on SN12C renal, 3.64 µM.
